Experiment [1] addresses GST-BRD4 (binding domain 1, amino acids 44-168) (Homo sapiens, UniProt O60885). The experiment in a line: Bromodomain binding assay (FRET). Conditions: for IC50: BRD4 binding domain 1, tetracetylated histone 4 peptide. As to the method:
Inhibition of bromodomain binding was measured using a FRET (fluorescence resonance energy transfer) based assay. […] In the presence of the two detection reagents, streptavidin D2 and anti-GST-Eu (CisBio) binding trig-gers a FRET signal detected by fluorescence at 665 nm as measured using a Pherastar reader (BMG Labtech). Data was analysed using GraphPad Prism version 8.00 for Windows, (GraphPad Software, San Diego California USA) in order to calculate the IC50. Standard deviations for the calculated IC50's are within 25% of the mean.

Experiment [2] concerns the target T1, PI3K.
T1 construct: PI3K Enzyme Activity Assay IC50 (nM); other: 10 μM ATP, 180 μM phosphatidyl inositol, 60 min
Nature of the experiment: PI3K enzyme activity assay (luminescence, ATP consumption, Kinase-Glo). It is filed as biochemical. Conditions: 10 μM ATP, 180 μM phosphatidyl inositol, 60 min. As to the method: (§1) PI3K activity was determined using a luminescence assay measuring ATP consumption as described previously (J.-A. Pinson, Z. Zheng, M. S. Miller, D. K. Chalmers, I. G. Jennings, P. E. Thompson, L-Aminoacyl-triazine derivatives are isoform-selective PI3Kβ inhibitors that target nonconserved Asp862 of PI3Kb, ACS Med. Chem. Lett. 4 (2013) 206-210). PI3K enzyme activity was determined in 25 μl of 20 mM HEPES pH 7.5, 5 mM MgCl2 with 180 μM phosphatidyl inositol and 10 μMATP. After a 60 min incubation at room temperature the reaction was stopped by the addition of Kinase-Glo (Promega) followed by a further 15 min incubation. Luminescence was then read using a Fluostar plate reader (BMGLabtech).
(§2) Inhibitors were diluted in 20% (v/v) DMSO at the indicated concentrations in order to generate a concentration versus inhibition of enzyme activity curve which was then analysed using GraphPad Prism version 8.00 for Windows, (GraphPad Software, San Diego California USA) in order to calculate the IC50. Standard deviations for the calculated IC50's are within 25% of the mean.

In experiment [3] the test system is OPM2 cells. Nature of the experiment: Cell proliferation assay (ViaLight, cellular ATP). It is filed as cell-based. Conditions: Homo sapiens, OPM-2, 120 h, 5 days, 5 μM to 1 nM. In outline: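 1×10^3 cells per well exposed to compounds at final 5 μM to 1 nM for 5 days. Viability read as cellular ATP by ViaLight luminescence, technical triplicates. GI50 computed from the dose–response.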

The test system of experiment [4] is PI3K. The experiment in a line: PI3K enzyme activity assay (luminescence, ATP consumption, Kinase-Glo). It is filed as biochemical. As to the method:
as §1, §2

Experiment [5] relates to MLL-AF9 cells (IBET-151-sensitive and IBET-151-resistant). Nature of the experiment: Apoptosis assay in BET-inhibitor-resistant cells (Annexin V/PI). It is filed as cell-based, mouse. Conditions: 1 μM, 72 h. The protocol: Mouse AML cells; MLL-AF9 (IBET-151-sensitive and IBET-151-resistant) (5×10^4) were treated with indicated compounds for 72 h. Apoptotic analysis was performed by flow cytometry using Annexin V/propidium iodide (PI) stains. Data were collected on a BD LSR-Fortessa X20 (BD Biosciences) and analysed using FlowJo Software, version 10.0.7 (Tree Star). IC50 were calculated using the GraphPad Prism Software Version 7.0c. Data are representative of biological triplicates.

What is called IC50 is the concentration that inhibits the measured activity by half. Low readings indicate inhibition by little substance, high ones a need for much substance. For orientation: GI50 means the concentration giving 50% growth inhibition. The low end stands for greater sensitivity of the cells, the high end for lower sensitivity of the cells. Take `CC(=O)N1c2ccc(-c3ccc(C(=O)N4CCN(C(=O)c5cn6cc(-c7cnc(N)nc7)nc(N7CCOCC7)c6n5)CC4)cc3)cc2CCC1C` (stereo not drawn) [Cpd 001, 1-(6-(4-(4-(6-(2-Aminopyrimidin-5-yl)-8-morpholinoimidazo[1,2-a]pyrazine-2-carbonyl)piperazine-1-carbonyl)phenyl)-2-methyl-3,4-dihydroquinolin-1(2H)-yl)ethan-1-one]: the IC50 in experiment [1] and in experiment [2] was above 500 nM in each case. In addition, the GI50 in experiment [3] lay within 100 to 500 nM.

In the case of `CC(=O)N1c2ccc(-c3ccc(CNC(=O)c4cn5cc(-c6cnc(N)nc6)nc(N6CCOCC6)c5n4)cc3)cc2CCC1C` (stereo not drawn) [Cpd 002, N-(4-(1-Acetyl-2-methyl-1,2,3,4-tetrahydroquinolin-6-yl)benzyl)-6-(2-aminopyrimidin-5-yl)-8-morpholinoimidazo[1,2-a]pyrazine-2-carboxamide], the figures for the IC50 in experiment [1] and in experiment [2] were 100 to 500 nM and at most 100 nM, respectively. In experiment [3], this compound gave a concentration for 50% growth inhibition (GI50) of at most 100 nM.

On to `CC(=O)N1c2ccc(-c3ccc(CNC(=O)CNC(=O)c4cn5cc(-c6cnc(N)nc6)nc(N6CCOCC6)c5n4)cc3)cc2CCC1C` (stereo not drawn) [Cpd 003, N-(2-((4-(1-Acetyl-2-methyl-1,2,3,4-tetrahydroquinolin-6-yl)benzyl)amino)-2-oxoethyl)-6-(2-aminopyrimidin-5-yl)-8-morpholinoimidazo[1,2-a]pyrazine-2-carboxamide], for which the IC50 was above 500 nM in experiment [1] and at most 100 nM in experiment [2]. The compound also registered a GI50 in experiment [3] of 100 to 500 nM.

Consider `CC(=O)N1c2ccc(-c3ccc(CN4CCN(C(=O)c5cn6cc(-c7cnc(N)nc7)nc(N7CCOCC7)c6n5)CC4)s3)cc2CCC1C` (stereo not drawn) [Cpd 004, 1-(6-(5-((4-(6-(2-Aminopyrimidin-5-yl)-8-morpholinoimidazo[1,2-a]pyrazine-2-carbonyl)piperazin-1-yl)methyl)thiophen-2-yl)-2-methyl-3,4-dihydroquinolin-1(2H)-yl)ethan-1-one], for which the IC50 in experiment [1] and in experiment [2] was 100 to 500 nM throughout.

As to `CC(=O)N1c2ccc(-c3ccc(CNC(=O)c4cn5cc(-c6cnc(N)nc6)nc(N6CCOCC6)c5n4)s3)cc2CCC1C` (stereo not drawn) [Cpd 005, N-((5-(1-Acetyl-2-methyl-1,2,3,4-tetrahydroquinolin-6-yl)thiophen-2-yl)methyl)-6-(2-aminopyrimidin-5-yl)-8-morpholinoimidazo[1,2-a]pyrazine-2-carboxamide], the IC50 in experiment [1] was 100 to 500 nM; in experiment [2], at most 100 nM. The same compound showed a GI50 in experiment [3] of at most 100 nM.

Consider `CC(=O)N1c2ccc(-c3ccc(C(=O)CN4CCN(C(=O)c5cn6cc(-c7cnc(N)nc7)nc(N7CCOCC7)c6n5)CC4)cc3)cc2CCC1C` (stereo not drawn) [Cpd 007, 1-(4-(1-acetyl-2-methyl-1,2,3,4-tetrahydroquinolin-6-yl)phenyl)-2-(4-(6-(2-aminopyrimidin-5-yl)-8-morpholinoimidazo[1,2-a]pyrazine-2-carbonyl)piperazin-1-yl)ethan-1-one], for which the IC50 in experiment [1] was above 500 nM; in experiment [2], at most 100 nM.

In the case of `CC(=O)N1c2ccc(-c3ccc(C(=O)CNC(=O)c4cn5cc(-c6cnc(N)nc6)nc(N6CCOCC6)c5n4)cc3)cc2CCC1C` (stereo not drawn) [Cpd 008, N-(2-(4-(1-Acetyl-2-methyl-1,2,3,4-tetrahydroquinolin-6-yl)phenyl)-2-oxoethyl)-6-(2-aminopyrimidin-5-yl)-8-morpholinoimidazo[1,2-a]pyrazine-2-carboxamide], the IC50 in experiment [1] is above 500 nM; in experiment [2] it was at most 100 nM.

Turning to `CC(=O)N1c2ccc(-c3ccc(C(=O)NCCNC(=O)c4cn5cc(-c6cnc(N)nc6)nc(N6CCOCC6)c5n4)cc3)cc2CCC1C` (stereo not drawn) [Cpd 009, N-(2-(4-(1-Acetyl-2-methyl-1,2,3,4-tetrahydroquinolin-6-yl)benzamido)ethyl)-6-(2-ami-nopyrimidin-5-yl)-8-morpholinoimidazo[1,2-a]pyrazine-2-carboxamide], the IC50 was at most 100 nM in experiment [1] and 100 to 500 nM in experiment [2]. The compound further gave a GI50 in experiment [3] of at most 100 nM.

As for `CC(=O)N1c2ccc(-c3ccc(C(=O)NCCCNC(=O)c4cn5cc(-c6cnc(N)nc6)nc(N6CCOCC6)c5n4)cc3)cc2CC[C@@H]1C` [Cpd 013, (S)-N-(3-(4-(1-Acetyl-2-methyl-1,2,3,4-tetrahydroquinolin-6-yl)benzamido)propyl)-6-(2-aminopyrimidin-5-yl)-8-morpholinoimidazo[1,2-a]pyrazine-2-carboxamide], the IC50 in experiment [1] and in experiment [2] was at most 100 nM in each case. This compound also yielded a GI50 in experiment [3] above 500 nM.

On to `CC(=O)N1c2ccc(-c3ccc(CNC(=O)c4cc5nc(-c6cnc(N)nc6)nc(N6CCOCC6)c5s4)cc3)cc2CC[C@@H]1C` [Cpd 030, (S)-N-(4-(1-acetyl-2-methyl-1,2,3,4-tetrahydroquinolin-6-yl)benzyl)-2-(2-aminopyrimidin-5-yl)-4-morpholinothieno[3,2-d]pyrimidine-6-carboxamide], for which the IC50 in experiment [2] is above 500 nM. This compound registered a GI50 in experiment [3] of at most 100 nM.

`CC(=O)N1c2ccc(-c3ccc(C(=O)NCCNC(=O)c4cc5nc(-c6cnc(N)nc6)nc(N6CCOCC6)c5s4)cc3)cc2CC[C@@H]1C` [Cpd 031, (S)-N-(2-(4-(1-Acetyl-2-methyl-1,2,3,4-tetrahydroquinolin-6-yl)benzamido)ethyl)-2-(2-aminopyrimidin-5-yl)-4-morpholinothieno[3,2-d]pyrimidine-6-carboxamide] came in with a 50% inhibitory concentration (IC50) in experiment [2] of 100 to 500 nM. The compound also yielded a GI50 in experiment [3] of at most 100 nM.

Regarding `CC(=O)N1c2ccc(-c3ccc(CNC(=O)c4sc5c(N6CCOCC6)nc(-c6cnc(N)nc6)nc5c4C)cc3)cc2CC[C@@H]1C` [Cpd 032, (S)-N-(4-(1-acetyl-2-methyl-1,2,3,4-tetrahydroquinolin-6-yl)benzyl)-2-(2-aminopyrimidin-5-yl)-7-methyl-4-morpholinothieno[3,2-d]pyrimidine-6-carboxamide], the 50% inhibitory concentration (IC50) in experiment [2] was above 500 nM. In experiment [3], this compound had a GI50 of at most 100 nM.

In turn, `CC(=O)N1c2ccc(-c3ccc(C(=O)NCCNC(=O)c4sc5c(N6CCOCC6)nc(-c6cnc(N)nc6)nc5c4C)cc3)cc2CC[C@@H]1C` [Cpd 033, (S)-N-(2-(4-(1-Acetyl-2-methyl-1,2,3,4-tetrahydroquinolin-6-yl)benzamido)ethyl)-2-(2-aminopyrimidin-5-yl)-7-methyl-4-morpholinothieno[3,2-d]pyrimidine-6-carboxamide] came in with an IC50 in experiment [2] of at most 100 nM. Also, in experiment [3], the GI50 is at most 100 nM.

As for `CC(=O)N1c2ccc(-c3ccc(CNC(=O)c4cn5cc(-c6cnc(N)nc6)nc(N6CCOCC6)c5n4)cc3)cc2CC[C@H]1C` [Cpd 034, (R)-N-(4-(1-acetyl-2-methyl-1,2,3,4-tetrahydroquinolin-6-yl)benzyl)-6-(2-aminopyrimidin-5-yl)-8-morpholinoimidazo[1,2-a]pyrazine-2-carboxamide], the “selectivity (PI3K)” value in experiment [4] was “selective PI3K inhibitor”.

With `CC(=O)N1c2ccc(-c3ccc(CNC(=O)c4cn5cc(-c6cnc(N)nc6)nc(N6CCNCC6)c5n4)cc3)cc2CC[C@@H]1C.Cl` [Cpd 035, (S)-N-(4-(1-acetyl-2-methyl-1,2,3,4-tetrahydroquinolin-6-yl)benzyl)-6-(2-aminopyrimidin-5-yl)-8-(piperazin-1-yl)imidazo[1,2-a]pyrazine-2-carboxamide hydrochloride], the “selectivity (BRD-4)” value in experiment [1] is “selective BRD-4 inhibitor”. This compound gave a GI50 in experiment [3] of at most 100 nM.

Take `COc1cc2c(cc1-c1c(C)noc1C)ncc1[nH]c(=O)n([C@H](C)c3ccccn3)c12` [I-BET151, reference compound]: in experiment [5], the “apoptosis in I-BET151-resistant MLL-AF9 cells” value was “resistance to I-BET151 drug in the resistant cells was confirmed”.

The values are drawn from US20230312577A1, “DUAL KINASE-BROMODOMAIN INHIBITORS” (MONASH UNIVERSITY, priority 2020, published 2023).
